Results as given in patent publication US12448383B2, “Compounds and methods for treatment of viral infections” (priority 2022, dated 2025).
Read-outs that look alike come from different tables or passages of the source.

Assays:
[1] = Thermodynamic solubility in pH7 buffered solution; conditions: 50 mM phosphate buffer pH7, 150 mM NaCl, ambient temperature, 24 hours
How it was run: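 Solid shaken 24 h at ambient temperature in 50 mM phosphate buffer pH7 with 150 mM NaCl. Supernatant diluted in 30:70 acetonitrile:water and quantified by UPLC-UV.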

[2] = CC50 MT4 cytotoxicity (Cell-Titer Glo); format: cell-based; conditions: human
How it was run: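 Uninfected MT-4 and HEp-2 cells cultured 4-5 days at 37° C with 3-fold serially diluted compound (15 nM to 100,000 nM). Viability read by Cell-Titer Glo luminescence; untreated and 2 μM puromycin wells set 100% and 0%. CC50 from non-linear regression as concentration reducing viability by 50%.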

[3] = GI S9 stability - no PMSF; format: in vitro ADME; conditions: pH 7.4; human intestinal S9, PMSF-free; read-out: GIS9-HUMAN-NoPMSF T1/2
How it was run: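 Compounds were incubated at 2 μM with PMSF-free intestinal S9 (1 mg/mL protein) in 100 mM PBS, pH 7.4, sampling at 6 time points over 120 min. Parent disappearance and formation of the nucleoside metabolite Reference Compound A were quantified by LC-MS (Q-Exactive) using analyte/internal standard peak area ratios.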

[4] = Stability in pH7 buffered solution; format: physicochemical; conditions: pH7 phosphate buffer, 40° C., Table N2
How it was run: (§1)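 Compounds diluted from 1 mg/mL acetonitrile stock to 50 μg/mL in 50 mM phosphate buffer with 150 mM NaCl at pH2 or pH7, held at 40° C. for 24 hrs. UPLC sampling at 0, 3, 6, 9, 12 hrs, plus 24 hrs from oven-stored duplicate; reported as % area normalized of compound peak.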

[5] = test system: Respiratory syncytial virus recombinant with luciferase (RSV-Luc5) in Normal Human Bronchial Epithelial (NHBE) cells; assay: microbe, parasite or virus in culture; format: cell-based
[6] = test system: SARS Coronavirus 2 recombinant with NanoLuc (SARS-CoV2-NLuc) in A549-hACE2 cells; assay: microbe, parasite or virus in culture; format: cell-based
[7] = Plasma stability; format: in vitro ADME; set-up: unit not given here; conditions: 37° C., 2 μM substrate
How it was run: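 Reaction mixture was sampled at 0.05, 0.5, 1, 2, 3 and 4 hr into quench solution containing internal standard, then centrifuged and diluted with water. Remaining analyte was measured by LC-MS on a Q-Exactive using a formic acid/acetonitrile gradient, with 5 ppm mass tolerance.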

[8] = Stability in pH2 buffered solution; format: physicochemical; conditions: pH2 phosphate buffer, 40° C.; for pH 2 Stability 24 h % AN: Table N2
How it was run: as §1

Row | SMILES | Sol pH 7 [1] | CC50 [2] | half-life at 2 µM [3] | pH 7 Stability 24 h % AN [4] | EC50 ([5]; read-out: EC50 RSVFluc-NHBE 384 V2) | EC50 ([6]; A549, read-out: EC50 SARS CoV2 NanoLuc A549 384) | STA Human Plasma 37 [7] | pH 2 Stability 24 h % AN [8] | EC50 ([5]; 72 h, read-out: RSV NHBE EC50) | EC50 ([6]; 48 h, read-out: SARS-CoV2 EC50) | Stability at pH2, 0 hr [8] | Stability at pH2, 3 hr [8] | Stability at pH2, 6 hr [8] | Stability at pH2, 9 hr [8] | Stability at pH2, 12 hr [8] | Stability at pH2, 24 hr [8]
1 | CC(C)OC(=O)Nc1ncnn2c([C@]3(C#N)O[C@H](COC(=O)OC(C)C)[C@@H](O)[C@H]3O)ccc12 [Compound 137, isopropyl (7-((2R,3R,4S,5R)-2-cyano-3,4-dihydroxy-5-(((isopropoxycarbonyl)oxy)methyl)tetrahydrofuran-2-yl)pyrrolo[2, i-f][1,2,4]triazin-4-yl)carbamate] | 0.13 | > 50 µM | 8.05 min | 97 % AN | 9.52 µM | > 50 µM | 676.3 | 80 % AN |  |  |  |  |  |  |  | 
2 | COC(=O)OC[C@H]1O[C@@](C#N)(c2ccc3c(N)ncnn23)[C@H](OC(C)=O)[C@@H]1OC(C)=O [Compound 128, (2R,3R,4R,5R)-2-(4-aminopyrrolo[2,1-f][1,2,4]triazin-7-yl)-2-cyano-5-(((methoxycarbonyl)oxy)methyl)tetrahydrofuran-3,4-diyl diacetate] | 1.42 | > 50 µM | 0.59 min | 78 % AN |  |  | 9.735 | 89 % AN | 2.04 µM | 7.23 µM | 100.0 % AN | 98.3 % AN | 96.7 % AN | 95.2 % AN | 93.8 % AN | 89.3 % AN
3 | CC1(C)[C@@H]2CC[C@@]1(C)[C@@H](OC(=O)OC[C@H]1O[C@@](C#N)(c3ccc4c(N)ncnn34)[C@H](O)[C@@H]1O)C2 [Compound 51, ((2R,3S,4R,5R)-5-(4-aminopyrrolo[2,1-f][1,2,4]triazin-7-yl)-5-cyano-3,4-dihydroxytetrahydrofuran-2-yl)methyl ((1R,2S,4R)-1,7,7-trimethylbicyclo[2.2.1]heptan-2-yl) carbonate] | 0.08 | 38.3 µM | 11 min | 97 % AN |  |  | 1366.8 | 98 % AN | 0.727 µM | 7.83 µM |  |  |  |  |  | 
4 | CC(C)OC(=O)OC[C@H]1O[C@@](C#N)(c2ccc3c(N)ncnn23)[C@H](OC(=O)C(C)C)[C@@H]1OC(=O)C(C)C [Compound 59, (2R,3R,4R,5R)-2-(4-aminopyrrolo[2,1-f][1,2,4]triazin-7-yl)-2-cyano-5-(((isopropoxycarbonyl)oxy)methyl)tetrahydrofuran-3,4-diyl bis(2-methylpropanoate)] | 0.01 | > 50 µM | 0.869 min | 93 % AN |  |  | 84.318 | 98 % AN | 0.811 µM | 4.16 µM | 100.0 % AN | 100.0 % AN | 100.0 % AN | 100.0 % AN | 98.9 % AN | 97.9 % AN
5 | CC(C)(C)OC(=O)OC[C@H]1O[C@@](C#N)(c2ccc3c(N)ncnn23)[C@H](O)[C@@H]1O [Compound 46, ((2R,3S,4R,5R)-5-(4-aminopyrrolo[2,1-f][1,2,4]triazin-7-yl)-5-cyano-3,4-dihydroxytetrahydrofuran-2-yl)methyl tert-butyl carbonate] | 0.45 | > 50 µM | 145 min | 8 % AN |  |  | 553.13 | 4 % AN | 1.18 µM | 4.3 µM |  |  |  |  |  | 
6 | CC12CCC(C1)C(C)(C)C2OC(=O)OC[C@H]1O[C@@](C#N)(c2ccc3c(N)ncnn23)[C@H](O)[C@@H]1O (mixture of isomers) [Compound 48, ((2R,3S,4R,5R)-5-(4-aminopyrrolo[2,1-f][1,2,4]triazin-7-yl)-5-cyano-3,4-dihydroxytetrahydrofuran-2-yl)methyl (1,3,3-trimethylbicyclo[2.2.1]heptan-2-yl) carbonate] | 0.19 | 25.5 µM | 10.1 min | 99 % AN |  |  | 1584 | 100 % AN | 0.167 µM | 14.2 µM |  |  |  |  |  | 
7 | CC(=O)O[C@H]1[C@@H](OC(C)=O)[C@](C#N)(c2ccc3c(N)ncnn23)O[C@@H]1COC(=O)OC(C)C [Compound 65, (2R,3R,4R,5R)-2-(4-aminopyrrolo[2,1-f][1,2,4]triazin-7-yl)-2-cyano-5-(((isopropoxycarbonyl)oxy)methyl)tetrahydrofuran-3,4-diyl diacetate] | 0.045 | > 50 µM | 0.621 min | 80 % AN |  |  | 14.9 | 90 % AN | 0.185 µM | 3.64 µM |  |  |  |  |  | 
8 | CC(C)OC(=O)OC[C@H]1O[C@@](C#N)(c2ccc3c(N)ncnn23)[C@H](O)[C@@H]1O [Compound 4, [(2R,3S,4R,5R)-5-(4-aminopyrrolo[2,1-f][1,2,4]triazin-7-yl)-5-cyano-3,4-dihydroay-tetrahydrofuran-2-yl]methyl isopropyl carbonate] | 1.85 | > 50 µM | 0.903 min | 97 % AN |  |  | 107.92 | 98 % AN | 0.774 µM | 2.67 µM | 98.5 % AN | 98.3 % AN | 98.5 % AN | 98.4 % AN | 98.5 % AN | 98.3 % AN
9 | CC(C)C(=O)O[C@H]1[C@@H](OC(=O)C(C)C)[C@](C#N)(c2ccc3c(N)ncnn23)O[C@@H]1COC(=O)OC(C)(C)C [Compound 58, (2R,3R,4R,5R)-2-(4-aminopyrrolo[2,1-f][1,2,4]triazin-7-yl)-5-(((tert-butoxycarbonyl)oxy)methyl)-2-cyanotetrahydrofuran-3,4-diyl bis(2-methylpropanoate)] | 0.02 | 27.1 µM | 1.19 min | 7 % AN |  |  | 1584 | 2 % AN | 1.07 µM | 2.24 µM |  |  |  |  |  | 
10 | CC1(OC(=O)OC[C@H]2O[C@@](C#N)(c3ccc4c(N)ncnn34)[C@H](O)[C@@H]2O)CCCCC1 [Compound 47, ((2R,3S,4R,5R)-5-(4-aminopyrrolo[2,1-f][1,2,4]triazin-7-yl)-5-cyano-3,4-dihydroxytetrahydrofuran-2-yl)methyl (1-methylcyclohexyl) carbonate] | 0.1 | > 50 µM | 151 min | 3 % AN |  |  | 1584 | 1 % AN | 1.48 µM | 3.36 µM |  |  |  |  |  | 
11 | CCOC(=O)OC[C@H]1O[C@@](C#N)(c2ccc3c(N)ncnn23)[C@H](O)[C@@H]1O [Compound 6, ((2R,3S,4R,5R)-5-(4-aminopyrrolo[2,1-f][1,2,4]triazin-7-yl)-5-cyano-3,4-dihydroxytetrahydrofuran-2-yl)methyl ethyl carbonate] | 3.02 | > 50 µM | 4.08 min | 100 % AN |  |  | 55.852 | 100 % AN | 1.01 µM | 4.42 µM |  |  |  |  |  | 
12 | CC(C)(OC(=O)OC[C@H]1O[C@@](C#N)(c2ccc3c(N)ncnn23)[C@H](O)[C@@H]1O)c1ccncc1 [Compound 49, ((2R,3S,4R,5R)-5-(4-aminopyrrolo[2,1-f][1,2,4]triazin-7-yl)-5-cyano-3,4-dihydroxytetrahydrofuran-2-yl)methyl (2-(pyridin-4-yl)propan-2-yl) carbonate] | 2.03 | > 50 µM | 522 min | 94 % AN |  |  | 1584 | 97 % AN | 17.7 µM | 14.3 µM |  |  |  |  |  | 
